Converted amounts (≈) assume the structure as drawn. Read-outs that look alike come from different tables or passages of the source.
What was measured:
[1] = test system: Vibrio parahaemolyticus K-5; test: Minimum prohibiting/inhibition concentration by agar plate dilution method; format: cell-based
Description: (§1) Minimum prohibiting concentration (γ/ml)
(§2) by means of agar plate dilution method
(§3) Minimum inhibition concentration (γ/ml) by means
(§4) of agar plate dilution method

[2] = test system: Salmonella enteriditis No. 11; test: as above; format: cell-based
Description: as §1, §2, §3, §4

[3] = test system: Staphylococcus aureus Smith S-424; test: as above; format: cell-based
Description: as §1, §2, §3, §4

Salmonella typhi O-901-W = test: as above; format: cell-based; details: Salmonella enterica
Description: as §1, §2, §3, §4

Proteus morganii Kono = test: as above; format: cell-based; details: Morganella morganii
Description: as §1, §2, §3, §4

[4] = test system: Escherichia coli K-12 IAM 1264; test: Minimum prohibiting concentration by agar plate dilution method; format: cell-based; details: IAM1264, Table 1
Description: as §1, §2

Serratia species No. 2 = test: as above; format: cell-based
Description: as §1, §2

Proteus species C73-25 = test: as above; format: cell-based; details: read-out: Minimum prohibiting concentration
Description: as §1, §2

[5] = test system: Pseudomonas species C73-2; test: as above; format: cell-based; details: C732, Table 1
Description: as §1, §2

Proteus species C73-34 = test: as above; format: cell-based; details: read-out: Minimum prohibiting concentration
Description: as §1, §2

Serratia species MS-2 = test: as above; format: cell-based
Description: as §1, §2

[6] = test system: Pseudomonas species C73-83; test: as above; format: cell-based
Description: as §1, §2

[7] = test system: Enterobacter species C73-17; test: as above; format: cell-based
Description: as §1, §2

[8] = test system: Vibrio parahaemolyticus K-7; test: as above; format: cell-based
Description: as §1, §2

[9] = test system: Pseudomonas aeruginosa IAM 1007; test: as above; format: cell-based
Description: as §1, §2

[10] = test system: Bacillus subtilis ATCC 6633; test: as above; format: cell-based
Description: as §1, §2

[11] = test system: Staphylococcus aureus 209p JC-1; test: as above; format: cell-based; details: read-out: Minimum prohibiting concentration
Description: as §1, §2

Escherichia coli C73-1 = test: as above; format: cell-based
Description: as §1, §2

[12] = test system: Escherichia coli NIHJ JC-2; test: as above; format: cell-based
Description: as §1, §2

[13] = test system: Staphylococcus aureus No. 26; test: as above; format: cell-based
Description: as §1, §2

[14] = test system: Staphylococcus aureus Smith No. 26; test: Minimum inhibition concentration by agar plate dilution method; format: cell-based; details: read-out: Minimum inhibition concentration
Description: as §3, §4

Klebsiella pneumoniae = test: as above; format: cell-based; details: Table 2
Description: as §3, §4

[15] = Toxicity, peritoneal administration to mice; format: in vivo; details: 6 mice, administered peritoneally, dosage amount of 200 mg/l kg
Description: The toxicity of the compounds according to this invention is excellently low. […] As is clear from above, the compounds according to this invention are not only low in toxicity and excellent in anti-biotic activity but also have a prolonged action after administration. Therefore, they show excellent infection cure effect and infection-defense effect in before-or after-administration and in less dosage in comparison with known cephalosporin derivatives, for example, cephalothin, cefazolin or cephaloridine.

[16] = K5, Table 1, agar plate dilution method, Vibrio parahaemolyticus K-5, read-out: Minimum prohibiting concentration
[17] = K5, Table 2, agar plate dilution method, Vibrio parahaemolyticus K-5, read-out: Minimum inhibition concentration
[18] = Table 1, agar plate dilution method, Salmonella enteriditis No. 11, read-out: Minimum prohibiting concentration
[19] = Table 2, agar plate dilution method, Salmonella enteritidis N0. 11, read-out: Minimum inhibition concentration
[20] = SMITHS424, Table 1, agar plate dilution method, Staphylococcus aureus Smith S-424, read-out: Minimum prohibiting concentration
[21] = read-out: Minimum inhibition concentration
[22] = read-out: Minimum prohibiting concentration
[23] = Table 1, agar plate dilution method, Serratia species No. 2, read-out: Minimum prohibiting concentration
[24] = Table 1, agar plate dilution method, Proteus species C73-25
[25] = Table 1, agar plate dilution method, Proteus species C73-34
[26] = Serratia, MS2, read-out: Minimum prohibiting concentration
[27] = C7383, Table 1, agar plate dilution method, Pseudomonas species C73-83, read-out: Minimum prohibiting concentration
[28] = C7317, Table 1, agar plate dilution method, Enterobacter species C73-17, read-out: Minimum prohibiting concentration
[29] = K7, Table 1, agar plate dilution method, Vibrio parahaemolyticus K-7, read-out: Minimum prohibiting concentration
[30] = IAM1007, Table 1, agar plate dilution method, Pseudomonas aeruginosa IAM 1007, read-out: Minimum prohibiting concentration
[31] = ATCC6633, Table 1, agar plate dilution method, Bacillus subtilis ATCC 6633, read-out: Minimum prohibiting concentration
[32] = Table 1, agar plate dilution method, Staphylococcus aureus 209p JC-1
[33] = C731, Table 1, agar plate dilution method, Escherichia coli C73-1, read-out: Minimum prohibiting concentration
[34] = Escherichia coli, NIHJJC2, read-out: Minimum prohibiting concentration
[35] = Table 1, agar plate dilution method, Staphylococcus aureus No. 26, read-out: Minimum prohibiting concentration
[36] = Table 2, agar plate dilution method, Staphylococcus aureus Smith No. 26
[37] = Salmonella, NO.11, read-out: Minimum prohibiting concentration
[38] = Table 1, agar plate dilution method, Proteus morganii Kono, read-out: Minimum prohibiting concentration
[39] = MS2, Table 1, agar plate dilution method, Serratia species MS-2, read-out: Minimum prohibiting concentration
[40] = NIHJJC2, Table 1, agar plate dilution method, Escherichia coli NIHJ JC-2, read-out: Minimum prohibiting concentration
[41] = Staphylococcus aureus, NO.26, read-out: Minimum prohibiting concentration
[42] = Table 2, agar plate dilution method, Proteus morganii Kono, read-out: Minimum inhibition concentration

| Structure (SMILES) | MIC [1, 16] [µg/mL] | MIC [1, 17] [µg/mL] | MIC [2, 18] [µg/mL] | MIC [2, 19] [µg/mL] | MIC [3, 20] [µg/mL] | MIC (Salmonella typhi O-901-W; [21]) [µg/mL] | MIC (Salmonella typhi O-901-W; [22]) [µg/mL] | MIC (Proteus morganii Kono; [22]) [µg/mL] | MIC [4] [µg/mL] | MIC (Serratia species No. 2; [23]) [µg/mL] | MIC [5] [µg/mL] | MIC (Proteus species C73-34; [25]) [µg/mL] | MIC [6, 27] [µg/mL] | MIC [7, 28] [µg/mL] | MIC [8, 29] [µg/mL] | MIC [9, 30] [µg/mL] | MIC [10, 31] [µg/mL] | MIC [11, 32] [µg/mL] | MIC (Escherichia coli C73-1; [33]) [µg/mL] | MIC (Klebsiella pneumoniae) [µg/mL] | further results |
| --- | --- | --- | --- | --- | --- | --- | --- | --- | --- | --- | --- | --- | --- | --- | --- | --- | --- | --- | --- | --- | --- |
| CC1(C)S[C@@H]2[C@H](NC(=O)C(C(=O)O)c3ccccc3)C(=O)N2[C@H]1C(=O)O (some centres unmarked) [Carbenicillin disodium, reference compound] | > 100 | > 100 | 50 | 50 | 0.39 | 12.5 | 12.5 | 12.5 | 12.5 | 50 | > 100 | 50 | > 100 | > 100 | 50 | > 100 | 0.39 | 0.39 | 25 | 25 | MIC (Proteus morganii Kono; [21]): 12.5 µg/mL; MIC (Proteus species C73-25; [24]): 50 µg/mL; MIC (Serratia species MS-2; [26]): 12.5 µg/mL; MIC [12, 34]: 12.5 µg/mL; MIC [13, 35]: 25 µg/mL; MIC [14, 36]: 25 µg/mL |
| Cc1nnc(SCC2=C(C(=O)O)N3C(=O)[C@@H](NC(=O)Cn4cnnn4)[C@H]3SC2)s1 [Cefazolin Na, reference compound] | 6.25 (≈ 13.8 µM) | – | – | – | 0.78 (≈ 1.72 µM) | – | 3.13 (≈ 6.89 µM) | – | 3.13 (≈ 6.89 µM) | > 100 | > 100 | 12.5 (≈ 27.5 µM) | > 100 | 50 (≈ 110 µM) | 12.5 (≈ 27.5 µM) | > 100 | 0.2 (≈ 0.44 µM) | 0.1 (≈ 0.22 µM) | 6.25 (≈ 13.8 µM) | – | MIC [2, 37]: 3.13 µg/mL (≈ 6.89 µM); MIC (Proteus morganii Kono; [38]): > 100 µg/mL; MIC (Proteus species C73-25): 3.13 µg/mL (≈ 6.89 µM); MIC (Serratia species MS-2; [39]): > 100 µg/mL; MIC [12, 40]: 6.25 µg/mL (≈ 13.8 µM); MIC [13, 41]: 3.13 µg/mL (≈ 6.89 µM) |
| Cc1ccc(-c2ccc(C(=O)N[C@@H](C(=O)NC3C(=O)N4C(C(=O)O)=C(CSc5nnc(C(N)=O)s5)CS[C@H]34)c3ccccc3)c(O)n2)cc1 (stereo partly drawn) [Example 2, 7-{D(-)-α-[2-hydroxy-6-(p-tolyl)pyridine-3-carbonylamino]phenylacetamido}-3-(5-carbamoyl-1,3,4-thiadiazol-2-ylthiomethyl)-3-cephem-4-carboxylic acid] | 25 (≈ 34.8 µM) | – | 0.39 (≈ 0.543 µM) | – | 0.78 (≈ 1.09 µM) | – | 3.13 (≈ 4.36 µM) | – | 6.25 (≈ 8.71 µM) | 100 (≈ 139 µM) | 100 (≈ 139 µM) | 12.5 (≈ 17.4 µM) | 100 (≈ 139 µM) | 50 (≈ 69.7 µM) | 12.5 (≈ 17.4 µM) | 100 (≈ 139 µM) | 1.56 (≈ 2.17 µM) | 0.78 (≈ 1.09 µM) | 25 (≈ 34.8 µM) | – | MIC (Proteus morganii Kono; [38]): 100 µg/mL (≈ 139 µM); MIC (Proteus species C73-25; [24]): 25 µg/mL (≈ 34.8 µM); MIC (Serratia species MS-2; [39]): 50 µg/mL (≈ 69.7 µM); MIC [12, 40]: 25 µg/mL (≈ 34.8 µM); MIC [13, 35]: 6.25 µg/mL (≈ 8.71 µM); mortality [15]: any mouse did not die |
| Cc1ccc(-c2ccc(C(=O)N[C@@H](C(=O)NC3C(=O)N4C(C(=O)[O-])=C(CSc5nnc(C(N)=O)s5)CS[C@H]34)c3ccc(O)cc3)c(O)n2)cc1.[Na+] (stereo partly drawn) [Example 8, sodium 7-{D(-)-α-[2-hydroxy-6-(p-tolyl)pyridine-3-carbonylamino]-p-hydroxyphenylacetamido}-3-(5-carbamoyl-1,3,4-thiadiazol-2-ylthiomethyl)-3-cephem-4-carboxylate] | – | – | – | – | – | – | 1.56 | 25 | 1.56 | – | 50 | – | – | – | – | – | – | – | – | – | MIC ([1]; Vibrio parahaemolyticus, K5, read-out: Minimum prohibiting concentration): 3.13 µg/mL; MIC [2, 37]: 0.78 µg/mL; MIC ([3]; Staphylococcus aureus, SMITHS424, read-out: Minimum prohibiting concentration): 0.39 µg/mL; MIC (Serratia species No. 2; Serratia, NO.2, read-out: Minimum prohibiting concentration): 50 µg/mL; MIC (Proteus species C73-25): 50 µg/mL; MIC (Proteus species C73-34): 12.5 µg/mL; MIC (Serratia species MS-2; [26]): 50 µg/mL; MIC ([6]; Pseudomonas, C7383, read-out: Minimum prohibiting concentration): 100 µg/mL; MIC ([7]; Enterobacter, C7317, read-out: Minimum prohibiting concentration): 12.5 µg/mL; MIC ([8]; Vibrio parahaemolyticus, K7, read-out: Minimum prohibiting concentration): 3.13 µg/mL; MIC ([9]; Pseudomonas aeruginosa, IAM1007, read-out: Minimum prohibiting concentration): 100 µg/mL; MIC ([10]; Bacillus subtilis, ATCC6633, read-out: Minimum prohibiting concentration): 0.78 µg/mL; MIC ([11]; Staphylococcus aureus, 209P): 0.2 µg/mL; MIC (Escherichia coli C73-1; Escherichia coli, C731, read-out: Minimum prohibiting concentration): 6.25 µg/mL; MIC [12, 34]: 12.5 µg/mL; MIC [13, 41]: 3.13 µg/mL |
| Cc1ccc(-c2ccc(C(=O)N[C@@H](C(=O)NC3C(=O)N4C(C(=O)O)=C(CSc5nnnn5C)CS[C@H]34)c3ccc(O)cc3)c(O)n2)cc1 (stereo partly drawn) [Example 56, 7-{D-(-)-α-[2-hydroxy-6-(p-tolyl)pyridine-3-carbonylamino]-p-hydroxyphenylacetamido}-3-(1-methyl-1,2,3,4-tetrazole-5-ylthiomethyl)-3-cephem-4-carboxylic acid] | – | 25 (≈ 36.3 µM) | – | – | – | 1.56 (≈ 2.26 µM) | – | – | – | – | – | – | – | – | – | – | – | – | – | 25 (≈ 36.3 µM) | MIC [2, 21]: 1.56 µg/mL (≈ 2.26 µM); MIC ([3]; Staphylococcus aureus, SMITHS424, read-out: Minimum inhibition concentration): 1.56 µg/mL (≈ 2.26 µM); MIC (Proteus morganii Kono; [42]): 12.5 µg/mL (≈ 18.1 µM); MIC ([14]; Staphylococcus aureus): 6.25 µg/mL (≈ 9.07 µM) |
| Cc1ccc(-c2ccc(C(=O)N[C@@H](C(=O)NC3C(=O)N4C(C(=O)O)=C(CSc5nnnn5C)CS[C@H]34)c3ccccc3)c(O)n2)cc1 (stereo partly drawn) [Example 57, 7-{D-(-)-α-[2-hydroxy-6-(p-tolyl)pyridine-3-carbonylamino]-phenylacetamido}-3-(1-methyl-1,2,3,4-tetrazole-5-ylthiomethyl)-3-cephem-4-carboxylicacid] | – | 25 (≈ 37.2 µM) | – | 3.13 (≈ 4.65 µM) | – | 6.25 (≈ 9.29 µM) | – | – | – | – | – | – | – | – | – | – | – | – | – | 50 (≈ 74.3 µM) | MIC ([3]; SMITHS424, Table 2, agar plate dilution method, Staphylococcus aureus Smith S-424, read-out: Minimum inhibition concentration): 12.5 µg/mL (≈ 18.6 µM); MIC (Proteus morganii Kono; [42]): 100 µg/mL (≈ 149 µM); MIC [14, 36]: 50 µg/mL (≈ 74.3 µM) |
